Results taken from ChEMBL document CHEMBL1157320, “Hepatoprotective sesquiterpene glycosides from Sarcandra glabra” (J Nat Prod, 2006).

Legend:
[1] = Hepatoprotective activity in rat WB-F344 cells assessed as inhibition of D-galactosamine-induced toxicity at 0.1 mM by MTT method relative to control; type: functional
[2] = Cytotoxicity against rat WB-F344 cells assessed as cell survival rate at 0.1 mM by MTT method relative to control; type: cell-based; settings: read-out: Activity

Compound | inhibition at 100 µM [1] [%] | viability at 100 µM [2] [%]
CC1=C2C[C@@H]3[C@@](C)(C=C2OC1=O)[C@@H]1C[C@@H]1[C@]3(O)CO[C@@H]1O[C@H](CO)[C@@H](O)[C@H](O)[C@H]1O [CHLORANOSIDE A] | 38.2 | 54.5
CC1=C2C/C=C(\CO[C@@H]3O[C@H](CO[C@@H]4OC[C@](O)(CO)[C@H]4O)[C@@H](O)[C@H](O)[C@H]3O)CC/C=C(\C)C[C@@H]2OC1=O [SARCAGLABOSIDE E] | 21.7 | 42.4
C=C[C@]1(C)C[C@@H]2OC(=O)C(C)=C2C[C@H]1C(=C)CO[C@@H]1O[C@H](CO)[C@@H](O)[C@H](O)[C@H]1O [SARCAGLABOSIDE C] | 36.1 | 53
C=C[C@]1(C)C[C@@H]2OC(=O)C(C)=C2C[C@H]1C(=C)CO[C@@H]1O[C@H](CO[C@@H]2OC[C@](O)(CO)[C@H]2O)[C@@H](O)[C@H](O)[C@H]1O [SARCAGLABOSIDE D] | 27 | 46.3
C=C1[C@H]2C[C@H]2[C@]2(C)[C@H](O)[C@]3(O[C@@H]4O[C@H](CO)[C@@H](O)[C@H](O)[C@H]4O)OC(=O)C(C)=C3C[C@@H]12 | 26 | 45.5
COC(=O)c1cc(OC)c2c(c1-c1c(CO)cc(OC)c3c1OCO3)OCO2 [BICYCLOL] | 27.4 | 46.6
C=C1C=C[C@H](O[C@@H]2O[C@H](CO)[C@@H](O)[C@H](O)[C@H]2O)[C@]2(C)C[C@@H]3OC(=O)C(C)=C3C[C@@H]12 [SARCAGLABOSIDE B] | 65.9 | 74.9
C=C1CC[C@H](O[C@@H]2O[C@H](CO)[C@@H](O)[C@H](O)[C@H]2O)[C@]2(C)C[C@@H]3OC(=O)C(C)=C3C[C@@H]12 [SARCAGLABOSIDE A] | 28.7 | 47.5
